Reference: patent US9963464B2, “Macrocyclic compounds” (Bayer Pharma Aktiengesellschaft, priority 2014, dated 2018)
pIC50: −log10 of the molar value.

Assays:
MOLM-13 cells = experiment: Proliferation assay MOLM-13; type: cell-based; conditions: Homo sapiens, 72-hour exposure, Cell Titre-Glo, read-out: Inhibition of MOLM-13 cell proliferation IC50
Protocol: (§1) Cultivated tumour cells (HeLa, human cervical tumour cells, ATCC CCL-2; NCI-H460, human non-small cell lung carcinoma cells, ATCC HTB-177; A2780, human ovarian carcinoma cells, ECACC #93112519; DU 145, hormone-independent human prostate carcinoma cells, ATCC HTB-81; HeLa-MaTu-ADR, multidrug-resistant human cervical carcinoma cells, EPO-GmbH Berlin; Caco-2, human colorectal carcinoma cells, ATCC HTB-37; B16F10, mouse melanoma cells, ATCC CRL-6475) were plated at a density of 5,000 cells/well (DU145, HeLa-MaTu-ADR), 3,000 cells/well (NCI-H460, HeLa), 2,500 cells/well (A2780), 1,500 cells/well (Caco-2), or 1,000 cells/well (B16F10) in a 96-well multititer plate in 200 μL of their respective growth medium supplemented 10% fetal calf serum. […] Cell proliferation was determined by staining the cells with crystal violet: the cells were fixed by adding 20 μl/measuring point of an 11% glutaric aldehyde solution for 15 minutes at room temperature. […] The extinction was determined by photometry at a wavelength of 595 nm. The change of cell number, in percent, was calculated by normalization of the measured values to the extinction values of the zero-point plate (=0%) and the extinction of the untreated (0 μm) cells (=100%). […] Cell viability was assessed after 72-hour exposure with the Cell Titre-Glo Luminescent Cell Viability Assay (Promega). […]

[1] = In vivo pharmacokinetics in rats; conditions: male, Wistar, rat, plasma, iv, i.v. bolus dosing, read-out: t1/2: terminal half-life (converted)
Protocol: 7. In Vivo Pharmacokinetics in Rats
For in vivo pharmacokinetic experiments test compounds were administered to male Wistar rats intravenously at doses of 0.3 to 1 mg/kg formulated as solutions using either rat plasma or solubilizers such as PEG400 in well-tolerated amounts.
For pharmacokinetics after intravenous administration test compounds were given as i.v. bolus and blood samples were taken at 2 min, 8 min, 15 min, 30 min, 45 min, 1 h, 2 h, 4 h, 6 h, 8 h and 24 h after dosing. […] Blood was collected into Lithium-Heparin tubes (Monovetten®, Sarstedt) and centrifuged for 15 min at 3000 rpm. An aliquot of 100 μL from the supernatant (plasma) was taken and precipitated by addition of 400 μL ice cold acetonitrile and frozen at −20 OC over night. Samples were subsequently thawed and centrifuged at 3000 rpm, 4° C. for 20 minutes. Aliquots of the supernatants were taken for analytical testing using an Agilent 1200 HPLC-system with LCMS/MS detection. PK parameters were calculated by non-compartmental analysis using a PK calculation software.
PK parameters derived from concentration-time profiles after i.v.: CLplasma: Total plasma clearance of test compound (in L/kg/h); CLblood: Total blood clearance of test compound: CLplasma*Cp/Cb (in L/kg/h) with Cp/Cb being the ratio of concentrations in plasma and blood, AUCnorm: Area under the concentration-time curve from t=0 h to infinity (extrapolated) divided by the administered dose (in kg*h/L); t1/2: terminal half-life (in h).

A2780 cells = experiment: Proliferation assay A2780; type: cell-based; conditions: Homo sapiens, A2780, 96 h; 4 days, crystal violet; read-out: Inhibition of A2780 cell proliferation IC50
Protocol: as §1

CS(=N)(=O)Cc1cc2cc(c1)OCCCCOc1cc(F)ccc1-c1nc(ncc1F)N2 (racemic) [Example 1, (rac)-16,20-Difluoro-9-[(S-methylsulfonimidoyl)methyl]-2,3,4,5-tetrahydro-12H-13,17-(azeno)-11,7-(metheno)-1,6,12,14-benzodioxadiazacyclononadecine]
pIC50 (MOLM-13 cells): 8.40 | half-life [1]: 2.2 h

CSCc1cc2nc(c1)OCCCCOc1cc(F)ccc1-c1cc(ncc1F)N2 [Example 12, 16,20-Difluoro-9-[(methylsulfanyl)methyl]-2,3,4,5-tetrahydro-12H-11,7-(azeno)-13,17-(metheno)-1,6,12,14-benzodioxadiazacyclononadecine]
pIC50 (A2780 cells): 6.94

CS(=N)(=O)Cc1cc2cc(c1)OCCCOc1cc(F)ccc1-c1nc(ncc1F)N2 (racemic) [Example 15, (rac)-15,19-difluoro-8-[(S-methylsulfonimidoyl)methyl]-3,4-dihydro-2H,11H-12,16-(azeno)-10,6-(metheno)-1,5,11,13-benzodioxadiazacyclooctadecine]
half-life [1]: 4.9 h

CS(=N)(=O)Cc1cc2nc(c1)OCCCOc1cc(F)ccc1-c1cc(ncc1F)N2 (racemic) [Example 5, (rac)-15,19-Difluoro-8-[(S-methylsulfonimidoyl)methyl]-3,4-dihydro-2H,11H-10,6-(azeno)-12,16-(metheno)-1,5,11,13-benzodioxadiazacyclooctadecine]
pIC50 (MOLM-13 cells): 8.70 | half-life [1]: 7.2 h
